Converted amounts (≈) assume the structure as drawn.
Key:
[1] = test system: Mycobacterium tuberculosis; experiment: Antimicrobial activity against Mycobacterium tuberculosis H37Rv ATCC 27294 assessed as inhibition of bacterial growth incubated for […] by broth dilution method; format: functional; conditions: time lower 18 hrs
[2] = test system: Mycobacterium tuberculosis; experiment: Antibacterial activity against Mycobacterium tuberculosis H37Rv assessed as reduction in bacterial growth measured after 7 days by broth micro-dilution method; format: functional; conditions: 168 h, time 7 day
[3] = test system: Mycobacterium tuberculosis; experiment: Antibacterial activity against wild type Mycobacterium tuberculosis H37Rv infected in BALB/c mouse assessed as log reduction in colony forming units at 20 mg/kg; format: functional
[4] = test system: Mycobacterium tuberculosis; experiment: Antimycobacterial activity against Mycobacterium tuberculosis H37Rv assessed as reduction in bacterial cell growth by resazurin reduction method; format: functional
[5] = test system: Mycobacterium tuberculosis; experiment: Antibacterial activity against Mycobacterium tuberculosis H37Rv; format: functional
[6] = test system: Mycobacterium tuberculosis; experiment: Antimycobacterial activity against Mycobacterium tuberculosis […] assessed as reduction in bacterial growth; format: functional
[7] = test system: Mycobacterium tuberculosis; experiment: Antibacterial activity against Mycobacterium tuberculosis ATCC 35801 assessed as inhibition of bacterial growth incubated for 7 days by resazurin microtiter assay; format: functional; conditions: ATCC 35801, 168 h, time 7 day
[8] = test system: Mycobacterium tuberculosis; experiment: Antimycobacterial activity against Mycobacterium tuberculosis assessed as bacterial growth inhibition; format: functional
Staphylococcus aureus = experiment: Antibacterial activity against Staphylococcus aureus assessed as reduction in microbial growth by CLSI protocol based broth micro-dilution method; format: functional
[9] = test system: Mycobacterium tuberculosis; experiment: Antimycobacterial activity against Mycobacterium tuberculosis assessed as reduction in bacterial growth; format: functional
Mycobacterium avium = experiment: Antimycobacterial activity against Mycobacterium avium assessed as bacterial growth inhibtion; format: functional
[10] = test system: Mycobacterium tuberculosis; experiment: Antimycobacterial activity against Mycobacterium tuberculosis H37Rv ATCC 27294 assessed as reduction in bacterial cell growth; format: functional
[11] = test system: Mycobacterium tuberculosis; experiment: Antimycobacterial activity against Mycobacterium tuberculosis; format: functional
[12] = test system: Mycobacterium tuberculosis; experiment: Antimycobacterial activity against Mycobacterium tuberculosis H37Rv ATCC 27294 assessed as reduction in bacterial cell growth by resazurin reduction method; format: functional
Salmonella typhimurium = experiment: Antibacterial activity against Salmonella typhimurium DT104 assessed as inhibition of bacterial growth incubated for 18 hrs by CLSI protocol based microbroth dilution method; format: functional, Salmonella enterica subsp. enterica serovar Typhimurium; conditions: Salmonella enterica
Cytochrome P450 2C9 = Cytochrome P450 2C9 (Homo sapiens, UniProt P11712); experiment: Inhibition of CYP2C9 (unknown origin); format: ADME
[13] = test system: Mycobacterium tuberculosis; experiment: Antibacterial activity against Mycobacterium tuberculosis H37Rv assessed as bacterial growth inhibition by CLSI broth microdilution method; format: functional
[14] = test system: Mycobacterium tuberculosis; experiment: Antitubercular activity against Mycobacterium tuberculosis H37Ra assessed as inhibition of bacterial growth incubated for 7 days by Microdilution Alamar Blue assay; format: functional; conditions: 168 h, time 7 day
[15] = test system: Mycolicibacterium smegmatis; experiment: Antimicrobial activity against Mycobacterium smegmatis ATCC 700084 assessed as bacterial growth inhibition; format: functional
[16] = test system: Mycolicibacterium smegmatis; experiment: Antimycobacterial activity against Mycobacterium smegmatis mc2 155 assessed as reduction in bacterial cell growth by resazurin reduction method; format: functional
[17] = test system: Mycobacterium tuberculosis; experiment: Antimycobacterial activity against Mycobacterium tuberculosis H37Rv assessed as reduction in bacterial growth after 7 days by resazurin based fluorescence assay; format: functional; conditions: 168 h, time 7 day

Cytochrome P450 2C9, sequence (P11712 whole entry): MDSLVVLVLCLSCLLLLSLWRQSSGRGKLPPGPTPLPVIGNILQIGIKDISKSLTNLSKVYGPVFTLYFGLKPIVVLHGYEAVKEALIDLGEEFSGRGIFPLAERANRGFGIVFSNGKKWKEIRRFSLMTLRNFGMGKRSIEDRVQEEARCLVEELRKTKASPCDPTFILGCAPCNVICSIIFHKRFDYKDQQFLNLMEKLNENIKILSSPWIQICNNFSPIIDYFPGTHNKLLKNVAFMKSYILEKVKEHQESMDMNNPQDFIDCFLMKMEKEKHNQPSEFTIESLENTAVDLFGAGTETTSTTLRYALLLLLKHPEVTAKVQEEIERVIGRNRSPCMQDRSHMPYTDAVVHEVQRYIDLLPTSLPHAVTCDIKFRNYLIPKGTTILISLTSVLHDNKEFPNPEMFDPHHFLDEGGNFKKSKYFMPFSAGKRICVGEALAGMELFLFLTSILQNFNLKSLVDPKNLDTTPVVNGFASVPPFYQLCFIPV

SMILES: c1cc2cc(-c3ccc(-c4cc5ccc(C6=NCCN6)cc5[nH]4)cc3)[nH]c2cc1C1=NCCN1
- MIC50 [1]: 0.04 µg/mL (≈ 0.09 µM)

SMILES: OC1CCN(CC2CCC(CNCc3ccccc3)CC2)CC1 (configuration not stated)
- MIC90 [2]: > 12 µg/mL

SMILES: CCOc1cc([C@](O)(CCN(C)C)[C@@H](c2cc3cc(Br)ccc3nc2OC)c2cccc(OC)c2F)cc(OC)n1
- log(activity) [3]: 1.5

SMILES: CC(=O)N1/C(=C/c2cccc(-c3ccccc3)c2)C(=O)c2ccccc21
- MIC99 [4]: 0.69 µg/mL (≈ 2.03 µM)

SMILES: C[C@]1(COc2ccc(N3CCC(Oc4ccc(OC(F)(F)F)cc4)CC3)cc2)Cn2cc([N+](=O)[O-])nc2O1 [DELAMANID]
- MIC50 [5]: 0.006 µg/mL (≈ 0.0112 µM)

SMILES: CCCCc1ccc(NC(=O)C2=CCN(C)[C@@H]([C@H](O[C@@H]3O[C@H](CN)[C@@H](O)[C@H]3O)[C@H]3O[C@@H](n4ccc(=O)[nH]c4=O)[C@H](O)[C@@H]3O)C(=O)N2C)cc1
- MIC50 [6]: 3.13 µg/mL (≈ 4.54 µM)

SMILES: CCNC(=O)Nc1nc2cc(-c3cnc(C(C)(C)O)nc3)c(F)c([C@H]3CCCO3)c2[nH]1
- MIC50 [7]: 0.03 µg/mL (≈ 0.07 µM)

SMILES: OC1CCN(CC2CCN(Cc3ccccc3)CC2)CC1
- MIC90 [2]: 6.2 µg/mL (≈ 21.5 µM)

SMILES: CC(=O)NC[C@H]1CN(c2ccc(N3CCOCC3)c(F)c2)C(=O)O1 [LINEZOLID]
- MIC50 [8]: 0.3 µg/mL (≈ 0.889 µM)
- MIC50 (Staphylococcus aureus): 0.3 µg/mL

SMILES: COc1nc2ccc(Br)cc2cc1[C@@H](c1ccccc1)[C@@](O)(CCN(C)C)c1cccc2ccccc12 [BEDAQUILINE]
- MIC50 [9]: 0.01 µg/mL (≈ 0.018 µM)
- MIC50 (Mycobacterium avium): 0.01 µg/mL (≈ 0.018 µM)

SMILES: C(=C\c1cc2ccc(C3=NCCN3)cc2[nH]1)/c1cc2ccc(C3=NCCN3)cc2[nH]1
- MIC50 [1]: 0.03 µg/mL (≈ 0.076 µM)

SMILES: CC(=O)N1/C(=C/c2ccc(Oc3ccc(Cl)cc3)cc2)C(=O)c2ccccc21
- MIC99 [4]: 0.18 µg/mL (≈ 0.462 µM)

SMILES: CN1CCN(c2ccc(N3C[C@H](CO)OC3=O)cc2F)C=N1 [DELPAZOLID]
- MIC50 [10]: 0.5 µg/mL (≈ 1.62 µM)
- MIC50 (Staphylococcus aureus): 0.5 µg/mL

SMILES: CC(C)=CCC/C(C)=C/CNCCNC1C2CC3CC(C2)CC1C3 (configuration not stated) [SQ109]
- MIC50 [11]: 0.12 µg/mL (≈ 0.363 µM)

SMILES: CCN(CC)CCOc1c(C(=O)OC)c2c3c(oc2c2ccccc12)C(=O)c1ccccc1C3=O
- MIC50 [12]: 0.19 µg/mL (≈ 0.403 µM)

SMILES: O=C1CCc2c(OC[C@]3(O)CCN(c4c(F)cc(Cl)cc4F)C[C@H]3O)ccc(F)c2N1 [QUABODEPISTAT]
- MIC50 [11]: 0.00024 µg/mL (≈ 0.000525 µM)

SMILES: COc1c(N2CC3(CC3)[C@@](C)(N)C2)c(F)cc2c(=O)c(C(=O)O)cn(C3C[C@H]3F)c12 (some centres not stated)
- MIC90 (Salmonella typhimurium): 0.06 µg/mL (≈ 0.143 µM)

SMILES: CC(=O)NC[C@H]1CN(c2ccc(N3CCSCC3)c(F)c2)C(=O)O1 [SUTEZOLID]
- MIC50 [8]: 0.03 µg/mL (≈ 0.0849 µM)
- MIC50 (Staphylococcus aureus): 0.03 µg/mL

SMILES: CCOC(=O)NC(=O)c1ccsc1NC(=O)c1ccn2cnnc2c1
- IC50 (Cytochrome P450 2C9): > 10000 nM

SMILES: CCCCCCCCCC(=O)C[C@@H]1[C@H](OC)C([C@@H](O[C@H]2OC(C(=O)N[C@H]3CCC[C@@H](C)NC3=O)=C[C@H](O)[C@@H]2O)C(N)=O)O[C@H]1n1ccc(=O)[nH]c1=O (some centres not stated)
- MIC50 [6]: 1 µg/mL (≈ 1.36 µM)

SMILES: COc1ncnc(Cn2cc(C(=O)NCCO)c3ncc(C)cc32)c1C [TBA-7371]
- MIC50 [6]: 0.28 µg/mL (≈ 0.788 µM)

SMILES: c1cc2cc(-c3ccc4cc(C5=NCCN5)[nH]c4c3)[nH]c2cc1C1=NCCN1
- MIC50 [1]: 0.08 µg/mL (≈ 0.217 µM)

SMILES: CC1(C)CCC(NC(=O)c2cc3c(Cl)cc(Cl)cc3[nH]2)CC1
- MIC50 [13]: 0.005 µg/mL (≈ 0.0147 µM)

SMILES: CC(=O)N1/C(=C/c2ccc(-c3ccccc3)cc2)C(=O)c2ccccc21
- MIC99 [4]: 0.38 µg/mL (≈ 1.12 µM)

SMILES: CN[C@@H]1[C@H](O)[C@H](NC)[C@H]2O[C@@]3(O)[C@H](NC(=O)Cc4ccc(F)cn4)C[C@@H](C)C[C@H]3O[C@@H]2[C@H]1O
- MIC50 [11]: 0.8 µg/mL (≈ 1.71 µM)

SMILES: O=[N+]([O-])c1cn2c(n1)OC[C@@H](OCc1ccc(OC(F)(F)F)cc1)C2 [PRETOMANID]
- MIC50 [5]: 0.015 µg/mL (≈ 0.0418 µM)

SMILES: OC1CCN(C2CCN(CC34CC5CC(CC(C5)C3)C4)CC2)CC1
- MIC90 [2]: > 10 µg/mL

SMILES: COC(=O)c1ccsc1NC(=O)C1CCCN1 (configuration not stated)
- MIC50 [14]: 0.8 µg/mL (≈ 3.15 µM)

SMILES: c1cc2cc(-c3ccc4cc(-c5ccc6oc(C7=NCCN7)cc6c5)[nH]c4c3)[nH]c2cc1C1=NCCN1
- MIC50 [1]: 0.02 µg/mL (≈ 0.0413 µM)

SMILES: COc1cc([C@](O)(CCN(C)C)[C@@H](c2cc3cc(Br)ccc3nc2OC)c2cccc(OC)c2F)cc(OC)n1 [TBAJ-587]
- MIC50 [15]: < 0.02 µg/mL
- log(activity) [3]: 4.5
- MIC50 (Mycobacterium avium): 0.006 µg/mL (≈ 0.00976 µM)

SMILES: O=[N+]([O-])c1cn2c(n1)OC[C@@H](OCc1ccc(-c3ccc(C(F)(F)F)cc3)nc1)C2
- MIC50 [5]: < 0.015 µg/mL

SMILES: OC1CCN(CC2CCN(CC34CC5CC(CC(C5)C3)C4)CC2)CC1
- MIC90 [2]: 4 µg/mL (≈ 11.5 µM)

SMILES: CCc1nc2ccc(Cl)cn2c1C(=O)NCc1ccc(N2CCC(c3ccc(OC(F)(F)F)cc3)CC2)cc1 [TELACEBEC]
- MIC90 [16]: 0.0024 µg/mL (≈ 0.00431 µM)

SMILES: COc1cc([C@](O)(CCN(C)C)[C@@H](c2cc3cc(Br)ccc3nc2OC)c2cc(OC)nc(OC)c2OC)cc(OC)n1 [TBAJ-876]
- MIC50 (Mycobacterium avium): 5 µg/mL (≈ 7.6 µM)

SMILES: CCOC(=O)NC(=O)c1ccsc1NC(=O)c1nc2cccnc2s1
- IC50 (Cytochrome P450 2C9): 130 nM

SMILES: CC(=O)N1/C(=C/c2ccc(-c3ccsc3)cc2)C(=O)c2ccccc21
- MIC99 [4]: 0.16 µg/mL (≈ 0.463 µM)

SMILES: OCC1CCCN1CC1CCN(CC23CC4CC(CC(C4)C2)C3)CC1 (configuration not stated)
- MIC90 [2]: > 10 µg/mL

SMILES: CC(=O)N1/C(=C/c2ccc(Oc3ccc(Cl)cc3)cc2)C(=O)c2cc(Cl)ccc21
- MIC99 [4]: 0.13 µg/mL (≈ 0.306 µM)

SMILES: O=C(OCc1ccccc1)c1ccsc1NC(=O)C1CCCN1 (configuration not stated)
- MIC50 [14]: 1.3 µg/mL (≈ 3.93 µM)

SMILES: OC1CCN(C2CCN(Cc3ccccc3)CC2)CC1
- MIC90 [2]: > 10 µg/mL

SMILES: O=C(Oc1ccccc1)c1ccsc1NC(=O)C1CCCN1 (configuration not stated)
- MIC50 [14]: 2.4 µg/mL (≈ 7.59 µM)

SMILES: c1ccc(CC2CCN(CC3CCN(CC45CC6CC(CC(C6)C4)C5)CC3)CC2)cc1
- MIC90 [2]: 7 µg/mL (≈ 16.6 µM)

SMILES: CC(=O)N1/C(=C/c2ccc(Br)cc2)C(=O)c2ccccc21
- MIC99 [4]: 0.42 µg/mL (≈ 1.23 µM)

SMILES: CCOC(=O)NC(=O)c1cc(F)sc1NC(=O)c1nc2ccccc2s1
- IC50 (Cytochrome P450 2C9): 150 nM

SMILES: CN[C@@H]1[C@H](O)[C@H](NC)[C@H]2O[C@@]3(O)[C@H](NC(=O)Cc4ccc(Cl)cn4)C[C@@H](C)C[C@H]3O[C@@H]2[C@H]1O
- MIC50 [11]: 1.6 µg/mL (≈ 3.3 µM)

SMILES: O=C(Nc1nc(-c2ccccn2)cs1)c1ccc(Cl)s1
- MIC50 [17]: 0.25 µg/mL (≈ 0.777 µM)
